Assay results as given in patent US20160313301A1, “METHOD FOR PREDICTING ANTITUMOR EFFICACY OF HSP90 INHIBITOR IN CANCER TREATMENT” (NIPPON KAYAKU KABUSHIKI KAISHA, priority 2013, published 2016).

System: client proteins and HSP90-related proteins in SK-OV-3 tumor
Assay: Immunoblot: change in expression amount of proteins in SK-OV-3 tumor after administration
Format: in vivo, human
Conditions: 40 mg/kg tail vein
Experimental: Thirty micrograms of total protein was subjected to electrophoresis in 8% acrylamide gel. Then, the protein was transferred onto a PVDF membrane at a voltage of 100 V for 60 min at 4 °C. The PVDF membrane on which the protein had been transferred was blocked in TBS-Tween (0.1%) containing 5% milk at normal temperature for 60 min, followed by incubating with each of primary antibodies described below overnight at 4 °C. • Primary antibody (supplier, product number, dilution ratio, exposure time) • EGFR (Santa Cruz, sc-003, 1:500, 1 min) • HER2 (Santa Cruz, sc-284, 1:2000, 5 sec) • HER3 (Santa Cruz, sc-285, 1:400, 1 min) • Met (Santa Cruz, sc-161, 1:500, 5 min) • IGF-1R (Cell Signaling, #3027, 1:500, 15 sec) • Raf-1 (Santa Cruz, sc-133, 1:300, 5 min) • Stat3 (BD Transduction Laboratory, 610189, 1:500, 15 sec) • pAkt (Cell Signaling, #4058S, 1:500, 1 min) • Akt (Cell Signaling, #4691S, 1:2000, 15 sec) • pERK (Santa Cruz, sc-16982-R, 1:500, 1 min) • ERK (Invitrogen, 44-654G, 1:1000, 15 sec) • mTOR (Cell Signaling, #2983S, 1:500, 15 sec) • MEK (Cell Signaling, #9122S, 1:500, 1 min) • HSP90 (Enzo Life Science, SPA-830, 1:500, 15 sec) • HSP70 (Enzo Life Science, SPA-810, 1:2000, 15 sec) • Actin (Santa Cruz, sc-8432/HRP, 1:300, 5 min)
After incubation, the blot membrane was washed with TBS-Tween (0.1%) at normal temperature for 10 min three times to thereby remove excessive primary antibodies. Then, the membrane was incubated with an appropriate secondary antibody (anti-rabbit IgG HRP conjugate or anti-mouse IgG HRP conjugate) at normal temperature for 60 min. The membrane was washed with TBS-Tween (0.1%) at normal temperature for 10 min three times to thereby remove excessive secondary antibodies. Then, the membrane was incubated with ECL Western Blotting Detection Reagents (GE Healthcare) for 2 min, followed by exposing to an X-ray film. Thus, the signal of the intended protein was detected.
Tumors to be transplanted derived from human ovarian cancer cell lines SK-OV-3 and TOV-21G were prepared in the same manner as in Example 1.
Protein extraction liquid was obtained from each tumor as follows. The human ovarian cancer tumors maintained by passage in SCID mice were transplanted subcutaneously to the dorsums of SCID mice with trocars. When the tumor volume of each tumor reached about 300 mm^3, the triazole (A-1) synthesized as the HSP90 inhibitor in Synthetic Example 1 was administered into a tail vein of each of the mice at a dose of 40 mg/kg in the same manner as in Example 1. The tumors were removed before and 4 and 24 hours after administration. At each time point, the tumors were removed from three mice for the SK-OV-3 tumor and two mice for the TOV-21G tumor. Protein extraction liquids were obtained in the same manner as in Example 1. The total protein amount in each of the extraction liquids was quantified in the same manner as in Example 1.
The immunoblot method was used to verify change in expression amounts of the client proteins and the HSP90-related proteins in the SK-OV-3 and TOV-21G tumors to which the triazole compound (A-1) had been administered, in the same manner as in Example 1. The types and dilution ratios of primary antibodies and secondary antibodies used were the same as in Example 1.

[1] = SK-OV-3 tumor after administration
[2] = SK-OV-3 tumor, 4 hours after administration

CC(C)c1cc(-c2n[nH]c(=O)n2-c2ccc(CN3CCN(C)CC3)cc2)c(O)cc1O [A-1, 5-(2,4-dihydroxy-5-isopropyl-phenyl)-4-[4-(4-methyl-piperazin-1-ylmethyl)-phenyl]-2,4-dihydro-[1,2,4]triazol-3-one]
expression amount of total Akt [1]: not changed | expression amount of total ERK [1]: not changed | expression level of EGFR [2]: significantly decreased | expression level of IGF-1R [2]: significantly decreased | expression level of Met [2]: significantly decreased | expression level of mTOR [2]: significantly decreased | expression level of pAkt [2]: significantly decreased | expression level of pERK [2]: significantly decreased
